Here are results for one compound from publication PMC7368294 (Proceedings of the National Academy of Sciences of the …, 2020).

The target of one assay is T1, Dα1/Dβ1/Dβ2 nAChR (Drosophila melanogaster, UniProt P04755+P09478+P25162).
T1 sequence (P09478 22-567): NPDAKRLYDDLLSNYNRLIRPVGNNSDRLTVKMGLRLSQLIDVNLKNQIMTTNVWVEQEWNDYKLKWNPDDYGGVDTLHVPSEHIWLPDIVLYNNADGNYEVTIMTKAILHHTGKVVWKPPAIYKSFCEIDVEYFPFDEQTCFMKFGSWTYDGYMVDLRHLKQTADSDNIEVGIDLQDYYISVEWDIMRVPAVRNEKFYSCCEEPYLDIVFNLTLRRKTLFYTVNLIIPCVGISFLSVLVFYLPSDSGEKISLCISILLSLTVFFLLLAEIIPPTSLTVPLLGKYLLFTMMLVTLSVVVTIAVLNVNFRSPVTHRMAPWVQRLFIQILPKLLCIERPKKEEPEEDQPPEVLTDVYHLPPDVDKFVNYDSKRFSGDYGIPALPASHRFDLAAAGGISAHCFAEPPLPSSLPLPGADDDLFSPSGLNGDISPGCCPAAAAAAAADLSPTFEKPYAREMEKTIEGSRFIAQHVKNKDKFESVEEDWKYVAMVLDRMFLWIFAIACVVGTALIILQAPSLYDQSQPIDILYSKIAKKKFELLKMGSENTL
T1 sequence (P04755 25-521): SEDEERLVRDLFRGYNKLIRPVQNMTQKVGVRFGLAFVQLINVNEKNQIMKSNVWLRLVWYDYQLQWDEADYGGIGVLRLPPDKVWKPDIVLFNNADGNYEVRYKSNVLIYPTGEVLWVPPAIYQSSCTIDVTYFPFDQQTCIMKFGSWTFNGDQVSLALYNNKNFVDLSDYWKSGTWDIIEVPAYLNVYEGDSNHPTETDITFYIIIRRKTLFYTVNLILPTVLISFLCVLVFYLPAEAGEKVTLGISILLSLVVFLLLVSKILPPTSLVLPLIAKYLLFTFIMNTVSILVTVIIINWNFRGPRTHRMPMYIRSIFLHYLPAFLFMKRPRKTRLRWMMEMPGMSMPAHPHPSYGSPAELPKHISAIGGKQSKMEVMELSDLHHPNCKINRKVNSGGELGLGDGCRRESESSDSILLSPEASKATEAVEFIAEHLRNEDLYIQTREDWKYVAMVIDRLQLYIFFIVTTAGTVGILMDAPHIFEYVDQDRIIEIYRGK
T1 sequence (P25162 19-519): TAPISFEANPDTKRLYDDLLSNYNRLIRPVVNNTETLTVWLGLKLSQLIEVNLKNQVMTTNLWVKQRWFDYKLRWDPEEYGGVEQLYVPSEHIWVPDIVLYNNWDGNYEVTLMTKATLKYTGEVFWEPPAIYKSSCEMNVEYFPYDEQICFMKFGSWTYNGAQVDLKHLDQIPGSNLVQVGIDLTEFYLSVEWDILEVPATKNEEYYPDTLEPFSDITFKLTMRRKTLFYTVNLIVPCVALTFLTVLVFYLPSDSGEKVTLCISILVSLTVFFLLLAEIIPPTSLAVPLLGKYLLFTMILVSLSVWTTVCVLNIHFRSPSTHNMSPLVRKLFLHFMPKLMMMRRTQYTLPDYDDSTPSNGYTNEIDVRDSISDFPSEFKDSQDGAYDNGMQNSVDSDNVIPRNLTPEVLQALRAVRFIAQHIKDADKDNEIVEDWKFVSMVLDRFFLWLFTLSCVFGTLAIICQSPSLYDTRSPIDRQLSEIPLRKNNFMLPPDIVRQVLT
In words: cell-based. More on the design: species or system Xenopus laevis oocytes.

Another assay concerns the target T2, Dα1/Dα2/Dβ1 nAChR (Drosophila melanogaster, UniProt P04755+P09478+P17644).
T2 sequence (P09478 22-567): T1 sequence (P09478 22-567)
T2 sequence (P17644 22-576): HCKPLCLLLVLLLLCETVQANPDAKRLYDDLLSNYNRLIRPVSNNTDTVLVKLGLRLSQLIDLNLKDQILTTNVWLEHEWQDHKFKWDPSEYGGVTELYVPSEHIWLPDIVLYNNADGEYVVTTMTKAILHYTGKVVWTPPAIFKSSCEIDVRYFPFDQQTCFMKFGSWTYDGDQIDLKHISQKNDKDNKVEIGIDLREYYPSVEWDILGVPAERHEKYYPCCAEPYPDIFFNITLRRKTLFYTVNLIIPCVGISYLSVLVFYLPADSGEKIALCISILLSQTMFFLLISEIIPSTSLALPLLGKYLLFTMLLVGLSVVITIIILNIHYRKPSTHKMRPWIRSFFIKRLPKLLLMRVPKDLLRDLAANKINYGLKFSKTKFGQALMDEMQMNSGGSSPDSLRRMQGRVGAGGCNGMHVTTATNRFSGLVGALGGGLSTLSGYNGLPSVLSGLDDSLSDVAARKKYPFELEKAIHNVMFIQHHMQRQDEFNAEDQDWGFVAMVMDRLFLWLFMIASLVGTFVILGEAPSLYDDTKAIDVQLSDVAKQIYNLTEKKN
T2 sequence (P04755 25-521): T1 sequence (P04755 25-521)
The assay can be described thus: cell-based. More on the design: species or system Xenopus laevis oocytes.

Take `CN/C(=N\[N+](=O)[O-])NCc1cnc(Cl)s1` [clothianidin]: the values for the EC50 at Dα1/Dβ1/Dβ2 nAChR and on Dα1/Dα2/Dβ1 nAChR were 219 nM and 2950 nM, respectively.

Usually EC50 stands for the concentration giving half of the maximal effect. The low end stands for a more potent agent, the high end for a less potent agent.
